Experimental data reported in patent publication US5348952A, “β-lactam derivatives of the cephem sulphone type” (Farmitalia Carlo Erba S.R.L., priority 1989, dated 1994).
Read-outs that look alike come from different tables or passages of the source.

What was measured:
[1] = biological target: T1, human leukocyte elastase (HLE) (Homo sapiens, UniProt P08246); experiment: Inhibition of HLE activity, kinetic parameters (Protocol B); type: biochemical; details: for Ki: steady state, read-out: "Potency" K1^ (apparent dissociation constant of the HLE-inhibitor complex at steady state, Ki^ss)
T1 construct: purchased Calbiochem Lot 702038
T1 sequence (P08246 30-267): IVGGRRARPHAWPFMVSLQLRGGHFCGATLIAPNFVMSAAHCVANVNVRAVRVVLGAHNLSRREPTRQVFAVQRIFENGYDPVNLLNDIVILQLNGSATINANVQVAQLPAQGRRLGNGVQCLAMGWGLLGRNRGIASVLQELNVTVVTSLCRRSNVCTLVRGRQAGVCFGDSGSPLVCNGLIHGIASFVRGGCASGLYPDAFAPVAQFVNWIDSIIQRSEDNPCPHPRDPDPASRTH
Description: Protocol B--Inhibition of HLE activity (Calbiochem, Lot 702038) was determined at 37° C., 0.027M pH 7.4 phosphate buffer, 1% DMSO, 1% MeCN, NaCl (I=15), by monitoring the release of 7-amino-4-methylcoumarin (fluorescence detection) from N-methoxysuccinyl-alanyl-prolyl-valyl-7-amido-4-methylcoumarin as substrate, according to the equations: [formula] wherein: [P], [I], [S]=product, inhibitor and substrate concentration
km =Michaelis constant for the enzyme-substrate pair (independently determined under the same experimental conditions).

[2] = biological target: porcine pancreatic elastase, PPE (Sus scrofa, UniProt P00772); experiment: Inhibition of PPE activity (Protocol A); type: biochemical; details: 30° C., 0.05M pH 7.4 phosphate buffer, 2.5% MeCN; 50% reduction of enzyme activity 6.4 minutes after zero time; read-out: PPE-inhibitory activity IC50 (converted)
Description: To illustrate this point, Table 1 reports the results of our preliminary screening test (carried out with porcine pancreatic elastase, PPE), wherein four representative compounds of the present invention (formula I) are compared with the corresponding 2-unsubstitued compounds of formula II (References A and B).
Protocol A--Inhibition of PPE activity was determined at 30° C., 0.05M pH 7.4 phosphate buffer, 2.5% MeCN, by monitoring the release of p-nitroaniline (410 nm, Carlo Erba Strumentazione Spectracomp spectrophotometer) from the substrate (N-t-Boc-alanyl-alanyl-prolyl-alanine-p-nitroanilide, 0.2 mM initial concentration).

[3] = 37° C., 0.027M pH 7.4 phosphate buffer, 1% DMSO, 1% MeCN, read-out: "Efficacy" Kon (rate of formation of the HLE-inhibitor complex)
[4] = 37° C., 0.027M pH 7.4 phosphate buffer, 1% DMSO, 1% MeCN

porcine pancreatic elastase, PPE, sequence (P00772 27-266): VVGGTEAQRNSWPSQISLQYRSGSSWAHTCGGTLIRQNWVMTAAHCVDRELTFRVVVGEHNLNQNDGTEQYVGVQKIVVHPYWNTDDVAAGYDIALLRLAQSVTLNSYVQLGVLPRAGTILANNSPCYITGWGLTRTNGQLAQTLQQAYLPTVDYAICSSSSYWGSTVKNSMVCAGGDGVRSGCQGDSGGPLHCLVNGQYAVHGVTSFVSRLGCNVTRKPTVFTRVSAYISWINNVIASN

| IC50 [2] [nM] | kon [1, 3] [M⁻¹ s⁻¹] | Ki [1, 4] [nM] | SMILES | kon ([1]; pH 7.4, read-out: "Efficacy" Kon (rate of formation of the HLE-inhibitor complex)) [M⁻¹ s⁻¹] |
| --- | --- | --- | --- | --- |
| – | – | – | CO[C@H]1C(=O)N2C(C(=O)N3CCCC3)=C(CSc3nc(=O)c(O)nn3C)CS(=O)(=O)[C@H]12 [Merck L-659,286, reference compound] | 1500 |
| 6540 | – | – | CC1=C(C(=O)C(C)(C)C)N2C(=O)[C@H](Cl)[C@H]2S(=O)(=O)C1 [Reference A, reference compound] | – |
| 6640 | – | – | CO[C@H]1C(=O)N2C(C(=O)C(C)(C)C)=C(C)CS(=O)(=O)[C@H]12 [Reference B, reference compound] | – |
| 4110 | – | – | CC1=C(C(=O)OC(C)(C)C)N2C(=O)[C@H](Cl)[C@H]2S(=O)(=O)C1Sc1nc2ccccc2s1 (some centres unmarked) [Reference C, reference compound] | – |
| 12800 | 500 | 38 | COC(=O)C1=C(C)C(Sc2nnnn2C)S(=O)(=O)[C@@H]2[C@@H](OC)C(=O)N12 (some centres unmarked) [Reference D, reference compound] | – |
| 96.3 | 90000 | 8.3 | CO[C@H]1C(=O)N2C(C(=O)C(C)(C)C)=C(C)C(Sc3nnnn3C)S(=O)(=O)[C@H]12 (stereo partly drawn) [n° 1, 4-tert-Butylcarbonyl-7α-methoxy-3-methyl-2-(1-methyl-1,2,3,4-tetrazol-5-yl)thio-3-cephem 1,1-dioxide] | – |
| 71.5 | – | – | CC1=C(C(=O)C(C)(C)C)N2C(=O)[C@H](Cl)[C@H]2S(=O)(=O)C1Sc1nc(=O)c(OC(c2ccccc2)c2ccccc2)nn1C (stereo partly drawn) [n° 4, 4-Tert-butylcarbonyl-7α-chloro-3-methyl-2-(2-methyl-5-oxo-6-benzhydryloxy-2,5-dihydro 1,2,4-triazin-3-yl-)thio-3-cephem 1,1-dioxide] | – |
| 75.6 | – | – | CC1=C(C(=O)C(C)(C)C)N2C(=O)[C@H](Cl)[C@H]2S(=O)(=O)C1Sc1nc(=O)c(O)nn1C (stereo partly drawn) [n° 5, 4-tert-butylcarbonyl-7α-chloro-3-methyl-2-(2-methyl-5-oxo-6-hydroxy-2,3-dihydro-1,2,4-triazin-3-yl)-thio-3-cephem 1,1-dioxide] | – |
| – | 11000 | 18 | CO[C@H]1C(=O)N2C(C(=O)C(C)(C)C)=C(C)C(Sc3nnnn3CCCC(=O)O)S(=O)(=O)[C@H]12 (stereo partly drawn) [n° 7, 4-tert-Butylcarbonyl-7α-methoxy-3-methyl-2-[1-(3-carboxy-1-propyl)-1,2,3,4-tetrazol-5-yl]thio-3-cephem 1,1-dioxide] | – |
| 65.4 | 25000 | 26 | CO[C@H]1C(=O)N2C(C(=O)C(C)(C)C)=C(C)C(Sc3nc(=O)c(O)nn3C)S(=O)(=O)[C@H]12 (stereo partly drawn) [n° 9, 4-tert-Butylcarbonyl-7α-methoxy-3-methyl-2-(2-methyl-5-oxo-6-hydroxy-2,5-dihydro-1,2,4-triazin-3-yl)thio-3-cephem 1,1-dioxide] | – |
